Like-named read-outs stand apart in the source and are kept apart here.
Assays:
Assay type in all cases: cell-based
Corynebacterium xerosis = assay: Antibacterial assay zone of inhibition Cx
[1] = tested on: Burkholderia thailandensis
Klebsiella pneumonia = assay: Antibacterial assay zone of inhibition Kp
Escherichia coli = assay: Antibacterial assay zone of inhibition Ec
Pseudomonas aeruginosa = assay: Antibacterial assay zone of inhibition Pa
Micrococcus luteus = assay: Antibacterial assay zone of inhibition Ml
Mycobacterium smegmatis = assay: Antibacterial assay zone of inhibition Ms
[2] = tested on: Corynebacterium pseudodiphtheriae; assay: Antibacterial assay zone of inhibition Cp
Bacillus cereus = assay: Antibacterial assay zone of inhibition Bc

| SMILES | Antibacterial Cx zone of inhibition (Corynebacterium xerosis; 0.1 mM) [millimeters] | Antibacterial Cx zone of inhibition (Corynebacterium xerosis; 0.5 mM) [millimeters] | Antibacterial Cx zone of inhibition (Corynebacterium xerosis; 1 mM) [millimeters] | Antibacterial Kp zone of inhibition (Klebsiella pneumonia; 0.1 mM) [millimeters] | Antibacterial Kp zone of inhibition (Klebsiella pneumonia; 0.5 mM) [millimeters] | Antibacterial Kp zone of inhibition (Klebsiella pneumonia; 1 mM) [millimeters] | Antibacterial Ec zone of inhibition (Escherichia coli; 0.1 mM) | Antibacterial Ec zone of inhibition (Escherichia coli; 0.5 mM) | Antibacterial Pa zone of inhibition (Pseudomonas aeruginosa; 0.1 mM) [millimeters] | Antibacterial Pa zone of inhibition (Pseudomonas aeruginosa; 0.5 mM) [millimeters] | Antibacterial Pa zone of inhibition (Pseudomonas aeruginosa; 1 mM) [millimeters] | Antibacterial Ml zone of inhibition (Micrococcus luteus; 0.1 mM) [millimeters] | Antibacterial Ml zone of inhibition (Micrococcus luteus; 0.5 mM) [millimeters] | Antibacterial Ml zone of inhibition (Micrococcus luteus; 1 mM) [millimeters] | Antibacterial Ms zone of inhibition (Mycobacterium smegmatis; 0.1 mM) [millimeters] | Antibacterial Ms zone of inhibition (Mycobacterium smegmatis; 0.5 mM) [millimeters] | Antibacterial Ms zone of inhibition (Mycobacterium smegmatis; 1 mM) [millimeters] | Antibacterial Cp zone of inhibition ([2]; 0.1 mM) [millimeters] | Antibacterial Cp zone of inhibition ([2]; 0.5 mM) [millimeters] | Antibacterial Cp zone of inhibition ([2]; 1 mM) [millimeters] | also measured |
| --- | --- | --- | --- | --- | --- | --- | --- | --- | --- | --- | --- | --- | --- | --- | --- | --- | --- | --- | --- | --- | --- |
| Clc1cccc(OCc2nnc(-c3nc4ccccc4s3)o2)c1 [HGN-835] | 0 | 0 | 0 | 0 | 14 | 18 | 0 millimeters | 0 millimeters | 0 | 0 | 0 | 0 | 0 | 14 | 0 | 0 | 0 | 0 | 0 | 0 | Antibacterial Bt zone of inhibition ([1]; 0.1 mM): 0 12.5 18 millimeters; Antibacterial Bt zone of inhibition ([1]; 0.5 mM): 0 12.5 18 millimeters; Antibacterial Bt zone of inhibition ([1]; 1 mM): 0 12.5 18 millimeters; Antibacterial Ec zone of inhibition (Escherichia coli; 1 mM): 0 millimeters; Antibacterial Bc zone of inhibition (Bacillus cereus; 0.1 mM): 0 millimeters; Antibacterial Bc zone of inhibition (Bacillus cereus; 0.5 mM): 14 millimeters; Antibacterial Bc zone of inhibition (Bacillus cereus; 1 mM): 20 millimeters |
| Clc1ccc(CCc2nnc(-c3nc4ccccc4s3)o2)c(Cl)c1 [HGN-824] | 0 | 0 | 0 | 0 | 0 | 0 | 0 millimeters | 0 millimeters | 0 | 0 | 0 | 0 | 0 | 0 | 0 | 12 | 18 | 0 | 0 | 10 | Antibacterial Bt zone of inhibition ([1]; 0.1 mM): 0 millimeters; Antibacterial Bt zone of inhibition ([1]; 0.5 mM): 0 millimeters; Antibacterial Bt zone of inhibition ([1]; 1 mM): 0 millimeters; Antibacterial Ec zone of inhibition (Escherichia coli; 1 mM): 0 millimeters; Antibacterial Bc zone of inhibition (Bacillus cereus; 0.1 mM): 0 millimeters; Antibacterial Bc zone of inhibition (Bacillus cereus; 0.5 mM): 0 millimeters; Antibacterial Bc zone of inhibition (Bacillus cereus; 1 mM): 0 millimeters |
| Cc1cccc(OCc2nnc(-c3nc4ccccc4s3)o2)c1 [HGN-837] | 0 | 11 | 17 | 0 | 0 | 0 | 0 millimeters | 10 millimeters | 0 | 0 | 0 | 0 | 6 | 10 | 0 | 0 | 0 | 0 | 0 | 0 | Antibacterial Bt zone of inhibition [1]: 0 13 19.5 millimeters; Antibacterial Ec zone of inhibition (Escherichia coli; 1 mM): 17 millimeters; Antibacterial Bc zone of inhibition (Bacillus cereus; 0.1 mM): 0 millimeters; Antibacterial Bc zone of inhibition (Bacillus cereus; 0.5 mM): 13 millimeters; Antibacterial Bc zone of inhibition (Bacillus cereus; 1 mM): 19 millimeters |
| CC(C)(C)c1ccc(OCc2nnc(-c3nc4ccccc4s3)o2)cc1 [HGN-836] | 0 | 0 | 11 | 0 | 0 | 7 | 0 NT millimeters | 0 NT millimeters | 0 | 0 | 0 | 0 | 0 | 0 | 0 | 0 | 0 | 0 | 0 | 0 | Antibacterial Bt zone of inhibition ([1]; 0.1 mM): 0 15 18 millimeters; Antibacterial Bt zone of inhibition ([1]; 0.5 mM): 0 15 18 millimeters; Antibacterial Bt zone of inhibition ([1]; 1 mM): 0 15 18 millimeters; Antibacterial Bc zone of inhibition (Bacillus cereus; 0.1 mM): 0 millimeters; Antibacterial Bc zone of inhibition (Bacillus cereus; 0.5 mM): 0 millimeters; Antibacterial Bc zone of inhibition (Bacillus cereus; 1 mM): 13 millimeters |
| c1ccc(OCc2nnc(-c3nc4ccccc4s3)o2)cc1 [HGN-840] | 0 | 0 | 0 | 0 | 0 | 16.5 | 0 millimeters | 0 millimeters | 0 | 0 | 0 | 0 | 0 | 0 | 0 | 0 | 0 | 0 | 12 | 19 | Antibacterial Bt zone of inhibition [1]: 0 14 17.5 millimeters; Antibacterial Ec zone of inhibition (Escherichia coli; 1 mM): 0 millimeters; Antibacterial Bc zone of inhibition (Bacillus cereus; 0.1 mM): 0 millimeters; Antibacterial Bc zone of inhibition (Bacillus cereus; 0.5 mM): 0 millimeters; Antibacterial Bc zone of inhibition (Bacillus cereus; 1 mM): 14.5 millimeters |
| Clc1ccc(OCc2nnc(-c3nc4ccccc4s3)o2)cc1Cl [HGN-834] | 0 | 0 | 0 | 0 | 0 | 0 | 0 millimeters | 0 millimeters | 0 | 0 | 0 | 0 | 0 | 0 | 0 | 0 | 0 | 0 | 0 | 0 | Antibacterial Bt zone of inhibition ([1]; 0.1 mM): 0 millimeters; Antibacterial Bt zone of inhibition ([1]; 0.5 mM): 0 millimeters; Antibacterial Bt zone of inhibition ([1]; 1 mM): 0 millimeters; Antibacterial Ec zone of inhibition (Escherichia coli; 1 mM): 0 millimeters; Antibacterial Bc zone of inhibition (Bacillus cereus; 0.1 mM): 0 millimeters; Antibacterial Bc zone of inhibition (Bacillus cereus; 0.5 mM): 11 millimeters; Antibacterial Bc zone of inhibition (Bacillus cereus; 1 mM): 18 millimeters |
| c1ccc(OCc2nnc(-c3cc4ccccc4[nH]3)o2)cc1 [HGN-811] | 0 | 0 | 0 | 0 | 0 | 0 | 0 millimeters | 0 millimeters | 0 | 0 | 0 | 0 | 0 | 0 | 0 | 0 | 0 | 0 | 0 | 0 | Antibacterial Bt zone of inhibition [1]: 0 8 12 millimeters; Antibacterial Ec zone of inhibition (Escherichia coli; 1 mM): 0 millimeters; Antibacterial Bc zone of inhibition (Bacillus cereus; 0.1 mM): 0 millimeters; Antibacterial Bc zone of inhibition (Bacillus cereus; 0.5 mM): 12.5 millimeters; Antibacterial Bc zone of inhibition (Bacillus cereus; 1 mM): 16 millimeters |
